# Results: patent US20230000813A1, “COMPOUND FOR THE TREATMENT OF BOVINE OR SWINE RESPIRATORY DISEASE” (Intervet Inc., priority 2016, published 2023)
# Read-outs that look alike come from different tables or passages of the source.
# Columns and labels:
# Assay type in all cases: cell-based
# [1] = test system: Mannheimia haemolytica MH 13065 (XB0446-6003.9, BRD field isolate); test: MIC, broth-microdilution (CLSI VET01-A4)
# In short: (§1)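 MIC read by eye as lowest compound concentration without visible growth (no turbidity), interpreted per CLSI VET01-S3. Doubling-dilution broth-microdilution trays, run according to CLSI VET01-A4.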
# [2] = test system: Mannheimia haemolytica MH 13093 (XB0472-6014.1, BRD field isolate); test: MIC, broth-microdilution (CLSI VET01-A4)
# In short: as §1
# [3] = test system: 20 isolates of Actinobacillus (A.) pleuropneumoniae; test: MIC50/MIC90, broth-microdilution, European respiratory tract isolates
# Description: (§2) The in vitro activity of compounds against 20 isolates of Actinobacillus (A.) pleuropneumoniae, 20 of Bordetella (B.) bronchiseptica, 20 of Histophilus (H.) somni, 40 of Mannheimia (M.) haemolytica and 40 of Pasteurella (P.) multocida collected in different European countries were determined. All bacteria were isolated from the respiratory tract of swine and cattle suffering from respiratory disease. All isolates were epidemiologically unrelated as specified by the different suppliers.
# (§3) The minimum inhibitory concentrations (MIC) of compounds according to the invention were determined by the broth-microdilution method according to CLSI document VET01-A4.
# (§4) Microdilution trays containing a doubling dilution series of the test compounds were used for the tests.
# (§5) The MIC results were interpreted according to the CLSI documents VET01-S3. The lowest concentration of compound at which no visible growth (i.e. no turbidity) detected by the unaided eye was recorded as the MIC.
# [4] = test system: 40 isolates of Mannheimia (M.) haemolytica; test: as above
# Description: as §2, §3, §4, §5
# [5] = test system: 20 isolates of Histophilus (H.) somni; test: as above
# Description: as §2, §3, §4, §5
# [6] = test system: 20 isolates of Bordetella (B.) bronchiseptica; test: as above
# Description: as §2, §3, §4, §5
# [7] = test system: 40 isolates of Pasteurella (P.) multocida; test: as above
# Description: as §2, §3, §4, §5
# [8] = test system: Pasteurella multocida PM 6391 (ATCC 43137, reference strain); test: MIC, broth-microdilution (CLSI VET01-A4); conditions: strain PM 6391
# In short: (§6)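 Broth microdilution per CLSI VET01-A4 using doubling dilution series of test compound; results interpreted per CLSI VET01-S3. MIC recorded as lowest concentration giving no turbidity visible to the unaided eye.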
# [9] = test system: Pasteurella multocida PM 12080 (IV102277-0093, BRD field isolate); test: MIC, broth-microdilution (CLSI VET01-A4)
# In short: as §6
# [10] = test system: Mannheimia haemolytica MH 12587 (1071, BRD field isolate, macrolide-resistance: erm+, E+); test: MIC, broth-microdilution (CLSI VET01-A4)
# In short: as §6
# [11] = test system: Pasteurella multocida PM 10775 (080130003051, BRD field isolate); test: MIC, broth-microdilution (CLSI VET01-A4)
# In short: as §6
# [12] = test system: Mannheimia haemolytica MH 10720 (154, BRD field isolate); test: MIC, broth-microdilution (CLSI VET01-A4)
# In short: as §6
# [13] = test system: Pasteurella multocida PM 6267 (P 2225 (L386), reference strain, mouse infection strain); test: MIC, broth-microdilution (CLSI VET01-A4)
# In short: as §6
# [14] = test system: Mannheimia haemolytica MH 6374 (ATCC 33396, reference strain); test: MIC, broth-microdilution (CLSI VET01-A4)
# In short: as §6
# [15] = test system: Mannheimia haemolytica MH 6357 (M7/2, reference strain, cattle infection strain); test: MIC, broth-microdilution (CLSI VET01-A4)
# In short: as §6
# [16] = test system: 15 isolates of H. parasuis; test: MIC50/MIC90, agar-dilution method (GC agar base); conditions: Haemophilus parasuis
# Description: The in vitro activity of 3 representative compounds of this invention against 15 isolates of H. parasuis was determined. All strains were isolated from the respiratory tract of swine in different European countries The MICs for all isolates were determined by using the agar-dilution method according to CLSI document VET01-A4 [1]with the following modification: GC agar base was used instead of Mueller-Hinton agar base for the preparation of the agar-dilution plates. Results were interpreted according to the CLSI document VET01-S3.
# [17] = test system: Mannheimia haemolytica MH 12180 (KLI-02944, BRD field isolate); test: MIC, broth-microdilution (CLSI VET01-A4); conditions: strain MH 12180
# Description: (§7) The Minimum inhibitory concentrations (MIC) of compounds according to the invention were determined by the broth-microdilution method according to CLSI document VET01-A4.
# (§8) Microdilution trays containing a doubling dilution series of the test compound were used for the tests.
# as §5
# [18] = test system: Staphylococcus aureus SA 5816 (2139, mastitis field isolate); test: MIC, broth-microdilution (CLSI VET01-A4); conditions: strain SA 5816
# Description: as §7, §8, §5
# [19] = test system: Pasteurella multocida PM 14426 (0006-439, BRD field isolate, macrolide-resistant); test: MIC, broth-microdilution (CLSI VET01-A4); conditions: strain PM 14426, macrolide-resistant
# Description: as §7, §8, §5
# [20] = test system: Staphylococcus aureus SA 6114 (ATCC 29213, reference strain); test: MIC, broth-microdilution (CLSI VET01-A4); conditions: strain SA 6114
# Description: as §7, §8, §5
# [21] = test system: Acinetobacter baumanii AB 16496 (ATCC 19606, reference strain); test: MIC, broth-microdilution (CLSI VET01-A4); conditions: strain AB 16496
# Description: as §7, §8, §5
# [22] = test system: Acinetobacter baumanii AB 15919 (IV369-2012, dermatitis field isolate); test: MIC, broth-microdilution (CLSI VET01-A4); conditions: strain AB 15919
# Description: as §7, §8, §5
smiles,measurement,setting,value
CC(C)(N)C(NC(=O)c1ccc(C#Cc2ccc(CNCc3ccncc3)cc2)cc1)C(=O)NO (centres unmarked) [C. 320],MIC,[1],0.8 µM
same,MIC,[2],1.6 µM
same,MIC50,[3],0.5 µg/mL
same,MIC90,[3],0.5 µg/mL
same,MIC50,[4],0.5 µg/mL
same,MIC90,[4],0.5 µg/mL
same,MIC50,[5],0.063 µg/mL
same,MIC90,[5],0.125 µg/mL
same,MIC50,[6],2 µg/mL
same,MIC90,[6],2 µg/mL
same,MIC50,[7],≤0.016 µg/mL
same,MIC90,[7],0.032 µg/mL
same,MIC,[8],0.032 µg/mL
same,MIC PM 12080,[9]; Pasteurella multocida PM 12080,<=0.1 μM
same,MIC,[9]; strain PM 12080,≤0.016 µg/mL
same,MIC MH 12587,"[10]; Mannheimia haemolytica MH 12587, macrolide-resistant",1.6 µM
same,MIC,"[10]; strain MH 12587, macrolide-resistant",0.5 µg/mL
same,MIC PM 10775,[11]; Pasteurella multocida PM 10775,<=0.1 μM
same,MIC,[11]; strain PM 10775,≤0.016 µg/mL
same,MIC,"[12]; Mannheimia haemolytica MH 10720, read-out: MIC MH 10720",0.4 µM
same,MIC,[12]; strain MH 10720,0.25 µg/mL
same,MIC PM 6267,[13]; Pasteurella multocida PM 6267,<=0.1 μM
same,MIC,[13]; strain PM 6267,≤0.016 µg/mL
same,MIC,"[14]; Mannheimia haemolytica MH 6374, read-out: MIC MH 6374",0.8 µM
same,MIC,[14]; strain MH 6374,0.25 µg/mL
same,MIC,"[15]; Mannheimia haemolytica MH 6357, read-out: MIC MH 6357",0.8 µM
same,MIC,[15]; strain MH 6357,0.5 µg/mL
same,MIC50,[16],2 µg/mL
same,MIC90,[16],4 µg/mL
same,MIC,[17],0.5 µg/mL
same,MIC,[18],>16 µg/mL
same,MIC,[19],≤0.016 µg/mL
same,MIC,[20],>16 µg/mL
same,MIC,[21],>16 µg/mL
same,MIC,[22],16 µg/mL
